Reference: patent US11325921B2, “Optically active crosslinked cyclic secondary amine derivative” (Sumitomo Dainippon Pharma Co., Ltd., priority 2018, dated 2022)
Where two headings read alike, the source gives them in different places.

Legend:
[1] = Test 4: pharmacokinetic study; assay type: in vivo; settings: male SD rat, oral, 10 mg/kg; for AUC(0-t): plasma, 24 hours; for compound-exposure in plasma (in words): summary of the table
Experimental: The test compound suspended in 0.5% methylcellulose was orally administered to 7-week-old male SD rat in a dose of 10 mg/kg. The blood sample was taken from jugular vein without anesthesia over time for 24 hours. The blood sample was centrifuged to obtain plasma. The plasma was pre-treated by methanol extraction method, and then analyzed with an LC-MS/MS to determine the concentration of the test compound. Based on the data from 0 hour after the administration until the time (t) when there was the final detection in the plasma, AUC was calculated by trapezoidal method.

[2] = test system: MEIS1 mRNA in MV4; 11 cells; experiment: Test 3: inhibition of mRNA transcription, MEIS1; assay type: cell-based; settings: for mRNA transcription inhibition activity (in words): MEIS1 and HOXA9, MV4, 1 μM, summary of the table; for mrna remaining at 1 µM: Homo sapiens, read-out: mRNA at 1 μM (% control) MEIS1
Experimental: (§1) MV4; 11 cells were obtained from American Type Culture Collection (ATCC). The cells were cultured at 37° C. in the presence of 5% CO2 in RPMI 1640 medium containing 10% fetal bovine serum and 1% penicillin/streptomycin. To the MV4; 11 cells was added each test compound to adjust the final concentration to 1 μmol/L, and the cells were cultured at 37° C. in the presence of 5% CO2 for 20 to 24 hours. After the incubation, the total RNA was extracted from the cells with RNeasy™ Mini Kit (QIAGEN, 74106), and cDNA was synthesized with Superscript™ VILO™ cDNA Synthesis Kit (Invitrogen, #11754250). By using TaqMan™ Gene Expression Master Mix (Applied Biosystems, 4369016) and TaqMan™ probe (Applied Biosystems), the expression level of mRNA was quantified from the obtained cDNA with 7900HT (Applied biosystems). The mRNA expression level of each obtained gene was fitted with the expression level of mRNA of GAPDH.

[3] = test system: HOXA9 mRNA in MV4; 11 cells; experiment: Test 3: inhibition of mRNA transcription, HOXA9; assay type: cell-based; settings: 20 to 24 hours, fitted with GAPDH; for mrna remaining at 1 µM: Homo sapiens, read-out: mRNA at 1 μM (% control) HOXA9
Experimental: as §1

[4] = target: Menin-MLL binding (His-Menin1-615 / MLL1-172-FLAG) (Homo sapiens (Human), UniProt O00255); experiment: Test 1: inhibition of the Menin-MLL binding (HTRF); settings: for Menin-MLL binding inhibition activity (in words): summary of the table
Menin-MLL binding (His-Menin1-615 / MLL1-172-FLAG), sequence (O00255 other isoform, or with tags, fused parts or gaps): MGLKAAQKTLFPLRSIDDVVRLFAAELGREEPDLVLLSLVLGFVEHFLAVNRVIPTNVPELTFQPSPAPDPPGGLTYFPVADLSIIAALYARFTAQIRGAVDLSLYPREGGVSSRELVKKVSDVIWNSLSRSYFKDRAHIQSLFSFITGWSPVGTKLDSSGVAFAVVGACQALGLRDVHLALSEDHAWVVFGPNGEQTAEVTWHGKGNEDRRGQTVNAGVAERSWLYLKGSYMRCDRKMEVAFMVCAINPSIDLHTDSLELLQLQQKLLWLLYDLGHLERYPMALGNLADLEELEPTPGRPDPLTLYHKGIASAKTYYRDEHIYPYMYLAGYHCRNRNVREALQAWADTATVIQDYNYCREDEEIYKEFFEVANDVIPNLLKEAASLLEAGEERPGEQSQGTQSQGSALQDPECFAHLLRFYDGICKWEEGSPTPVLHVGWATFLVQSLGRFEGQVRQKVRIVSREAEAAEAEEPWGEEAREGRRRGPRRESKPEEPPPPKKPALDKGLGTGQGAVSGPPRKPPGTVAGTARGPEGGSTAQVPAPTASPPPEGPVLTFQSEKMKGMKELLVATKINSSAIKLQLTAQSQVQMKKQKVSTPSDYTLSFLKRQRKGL
Experimental: Menin1-615 wherein 6× His tag and HA tag are inserted in the N-terminus, and myc tag is inserted in the C-terminus (hereinafter, referred to as His-Menin1-615), was diluted with an assay buffer (25 mmol/L HEPES, 150 mmol/L NaCl, 1 mmol/L dithiothreitol, 0.5% (w/v) Tween 80, 0.3% (w/v) BSA, 0.3% (w/v) skim milk) to adjust the final concentration Lo 30 nmol/L. The test compounds were also diluted with the assay buffer to adjust each concentration of the test compounds to 0.005 to 5 μmol/L. The prepared His-Menin1-615 and test compounds were added to a light-shielding 384-well low-volume plate (Corning, #4514) in 2 μL/well and 6 μL/well, respectively, and the plate was covered with a lid for light-shielding (Corning, r-3935), and incubated at room temperature for 3 hours. After the incubation, MLL1-172 wherein FLAG tag is inserted in the C-terminus (MLL1-172-FLAG), was separately diluted with the assay buffer to adjust the final concentration to 50 nmol/L. The prepared MLL1-172-FLAG was added to the above plate in 2 μL/well, and the plate was covered with a lid for light-shielding and incubated at room temperature for an hour.
Then, anti-6HIS-d2 antibody (cisbio, 61HISDLA) and anti-FLAGM2-K antibody (cisbio, 61FG2KLA) were diluted with an antibody dilution buffer (50 mmol/L Tris, 150 mmol/L NaCl, 800 mmol/L KF, pH 7.4) to adjust the final concentration to 1.4 μg/mL to prepare an antibody mixture. The prepared antibody mixture was added to the above plate in 10 μL/well, and the plate was covered with a lid and incubated at 4° C. for 17 to 24 hours. After the incubation, the signal was detected with RUBYstar (BMG LABTECH). The binding inhibition rate (%) at each concentration of the test compounds was calculated from the following formula, and the IC50 value was obtained, that corresponds to the concentration of the test compound at which the binding inhibition rate is 50%.

[5] = test system: RS4; 11 cells; experiment: Test 2: inhibition of cell proliferation, RS4; 11; assay type: cell-based; settings: for cell proliferation inhibition activity (in words, good) / cell proliferation inhibitory activity (in words, potent): 11 and MOLM-13 cells, summary of the table; for cell proliferation inhibitory activity (in words, potent): 'especially'; for IC50: 11 cells, cultured 7 days, PrestoBlue
Experimental: (§2) RS4; 11 cells were obtained from American Type Culture Collection (ATCC). The cells were cultured at 37° C. in the presence of 5% CO2 in RPMI 1640 medium containing 10% fetal bovine serum and 1% penicillin/streptomycin. MOLM-13 cells were separately obtained from DSMZ. The cells were cultured at 37° C. in the presence of 5% CO2 in RPMI 1640 medium containing 20% fetal bovine serum and 1% penicillin/streptomycin.
(§3) The cells were plated to a 96-well plate in 2000 cells/well, each test compound was added thereto to adjust the final concentration of DMSO to 0.1% of DMSO, and the cells were cultured for 7 days. After the cultivation, the cell viability was calculated with PrestoBlue™ Cell Viability Reagent (Invitrogen, A13261). The IC50 value was calculated from a survival curve, that corresponds to the concentration of the test compound at which the cell proliferation inhibition rate is 50%.

[6] = test system: MOLM-13 cells; experiment: Test 2: inhibition of cell proliferation, MOLM-13; assay type: cell-based; settings: cultured 7 days, PrestoBlue
Experimental: as §2, §3

[7] = MV4, 20 to 24 hours, fitted with GAPDH

| Compound | AUC(0-t) [1] [ng·h/mL] | mRNA transcription inhibition activity (in words) [2] | mRNA at 1 μM (% control) MEIS1 [2, 7] [% control] | mRNA at 1 μM (% control) HOXA9 [3] [% control] | IC50 [4] [nM] | Menin-MLL binding inhibition activity (in words) [4] | cell proliferation inhibition activity (in words, good) [5] | cell proliferation inhibitory activity (in words, potent) [5] | IC50 [5] [nM] | IC50 [6] [nM] | AUC(0-t) ([1]; read-out: AUC0-t) [ng·h/mL] | compound-exposure in plasma (in words) [1] | mrna remaining at 1 µM [2, 7] [%] | mrna remaining at 1 µM [3] [%] | IC50 ([5]; Homo sapiens, 168 h) [nM] | IC50 ([6]; Homo sapiens, 168 h) [nM] |
| --- | --- | --- | --- | --- | --- | --- | --- | --- | --- | --- | --- | --- | --- | --- | --- | --- |
| 4-{6-[(1S,3S,4S,5S)-5-fluoro-2-azabicyclo[2.2.2]octane-3-carbonyl]-2,6-diazaspiro[3.3]heptan-2-y}-2-(2,2,2-trifluoroethyl)thieno[2,3-b]pyridine-5-carbonitrile [Example 22] | 244 | showed the mRNA transcription inhibition activity | 18.1 | 37.0 | 6.2 | potent | good | potent | 100 | 90 |  |  |  |  |  |  |
| O=C([C@H]1N[C@H]2CC[C@@H]1[C@@H](F)C2)N1CC2(C1)CN(c1c(C(F)(F)F)cnc3sc(CC(F)(F)F)cc13)C2 [Example 1, {(1S,3S,4S,5S)-5-Fluoro-2-azabicyclo[2.2.2]octan-3-yl}{6-[2-(2,2,2-trifluoroethyl)-5-(trifluoromethyl)thieno[2,3-b]pyridin-4-yl]-2,6-diazaspiro[3.3]heptan-2-yl}methanone] |  | showed the mRNA transcription inhibition activity |  |  | 13.3 | potent | good | potent |  |  | 2410 | good compound-exposure in plasma | 18 | 43.3 | 90 | 80 |
| O=C([C@H]1N[C@@H]2CC[C@H]1C2)N1CC2(C1)CN(c1c(C(F)(F)F)cnc3sc(CC(F)(F)F)cc13)C2 [Example 2, [(1R,3S,4S)-2-azabicyclo[2.2.1]heptan-3-yl]{6-[2-(2,2,2-trifluoroethyl)-5-(trifluoromethyl)thieno[2,3-b]pyridin-4-yl]-2,6-diazaspiro[3.3]heptan-2-yl}methanone] |  |  |  |  | 17.8 |  |  |  |  |  | 1960 | good compound-exposure in plasma | 32 | 34.3 | 200 | 260 |
| O=C([C@H]1NC2CCC1CC2)N1CC2(C1)CN(c1c(C(F)(F)F)cnc3sc(CC(F)(F)F)cc13)C2 [Example 3, [(3S)-2-azabicyclo[2.2.2]octan-3-yl]{6-[2-(2,2,2-trifluoroethyl)-5-(trifluoromethyl)thieno[2,3-b]pyridin-4-yl]-2,6-diazaspiro[3.3]heptan-2-yl}methanone] |  |  |  |  | 31.8 |  |  |  |  |  | 1210 | good compound-exposure in plasma | 18.7 | 32 | 200 | 210 |
| O=C([C@H]1N[C@H]2C[C@@H]1[C@@H](F)C2)N1CC2(C1)CN(c1c(C(F)(F)F)cnc3sc(CC(F)(F)F)cc13)C2 [Example 9, [(1S,3S,4S,5S)-5-fluoro-2-azabicyclo[2.2.1]heptan-3-yl]{6-[2-(2,2,2-trifluoroethyl)-5-(trifluoromethyl)thieno[2,3-b]pyridin-4-yl]-2,6-diazaspiro[3.3]heptan-2-yl}methanone] |  |  |  |  | 31.7 |  |  |  |  |  | 3750 | good compound-exposure in plasma | 34.2 | 49.4 | 170 | 280 |
| N#Cc1cnc2sc(CC(F)(F)F)cc2c1N1CC2(CN(C(=O)[C@H]3N[C@H]4CC[C@@H]3C(F)(F)C4)C2)C1 [Example 23, 4-{6-[(1S,3S,4S)-5,5-difluoro-2-azabicyclo[2.2.2]octane-3-carbonyl]-2,6-diazaspiro[3.3]heptan-2-yl}-2-(2,2,2-trifluoroethyl)thieno[2,3-b]pyridine-5-carbonitrile] |  |  |  |  | 11 |  |  |  |  |  | 668 |  | 45.4 | 49.3 | 280 | 290 |
